From patent publication US11033473B2, “Hair restoration/growth stimulating agent” (Kinjirushi Co., Ltd., priority 2015, dated 2021) come the findings set out here.

Read-outs that look alike come from different tables or passages of the source. Some results are limits rather than exact numbers.

The test system of one data set is FGF-7 gene. The data set is described as follows: FGF-7 gene expression in human hair follicle dermal papilla cells (real-time PCR). It counts as cell-based. Particulars: cultured for two hours. The procedure:
Then, the cells are cultured for two hours, and total RNA was recovered and reverse transcribed into cDNA. Thereafter, FGF-7 gene expression was measured by real-time PCR. Using GAPDH gene as an internal reference, FGF-7 gene expression was calculated as a relative value of the negative control section. The experiment was carried out three times. Details of each procedure are shown below.
First, collection of total RNA from the cells and cDNA synthesis were carried out according to the steps of FastLane Cell RT-PCR kit.
Step 7-1. 500 μL per well of buffer FCW was added to the cells washed with PBS, and the buffer FCW was immediately removed and aspirated.
Step 7-2. 200 μL per well of the buffer FCP was added. After incubation for 5 minutes at room temperature (25° C.), FastLane lysate was transferred to a 96-well PCR tube. The tube was stored at −80° C. until the next cDNA synthesis.
Step 7-3. Lysate in Step 7-2 was dissolved at room temperature. 2 μL of gDNA Wipeout Buffer, 1μL of FastLane lysate and 11 μL of RNase-free water were added to a new PCR tube, caused to react for 5 minutes at 42° C., and then transferred immediately to ice. (In fact, an appropriate amount of master mix of gDNA Wipeout Buffer and RNase-free water was added to the tube containing lysate.)
Step 7-4. 6 μL of the reverse transcription reaction master mix was added to 14 μL of reaction solution obtained in Step 7-3 and incubated for 30 minutes at 42° C. (1 μL of Quantiscript Reverse Transcriptase, 4 μL of Quantiscript RT Buffer, 1 μL of RT Primer Mix/tube).
Step 7-5. The reaction solution was treated for 3 minutes at 95° C., to inactivate the reverse transcriptase. […]
The relative expression level of each gene was calculated as follows. From an intersection of an amplification curve of each gene and a threshold line of each gene, a Ct value (the number of PCR cycles) was calculated. ΔCt value is obtained by subtracting a Ct value of the internal reference GAPDH gene from a Ct value of the target gene (Ct values (target gene)−Ct (GAPDH2)=ΔCt value). […]
(Quantitative PCR measures a nucleic acid by following its amplification.)

Data set [1] deals with human hair follicle dermal papilla cells. The data set is described as follows: Evaluation of human hair follicle dermal papilla cell-activating action (Living Cell Count Reagent SF, ABS/hr). The format is cell-based. Particulars: for cell-activating action vs 0.1% DMSO experimental section: 100 μmol/L. The procedure:
After one-day culturing in the carbon dioxide incubator, the cells were transferred to a follicle dermal papilla cell proliferation medium in which isosaponarin was dissolved at final concentrations of 0.1 μmol/L, 10 μmol/L, and 1000 μmol/L. Then, the cells were cultured for one day and three days, and proliferation of each cell was compared using Living Cell Count Reagent SF. After the one-day and three-day culturing were completed, the supernatant culture was removed, and the cells were washed with PBS. After washing with PBS, a medium containing 10% Living Cell Count Reagent SF at 300 μL/well was added. The culture supernatant at 100 μL/well was transferred to another 96-well plate 30 and 90 minutes after the addition. Absorbance was measured at a microplate reader (measuring wavelength 450 nm, reference wavelength 595 nm). […] The experiment was carried out five times. A non-addition control section was used as a comparison control section of isosaponarin.
As a positive control, the same test was carried out also for the case of adding adenosine (Cat. No. 016-10493, distributed by Wako Pure Chemical Industries, Ltd.) at final concentration of 100 μmol/L and minoxidil (Cat. No. M4145-25MG, distributed by Sigma-Aldrich Japan Co., Ltd.) at final concentration of 30 μmol/L. Adenosine was dissolved in dimethyl sulfoxide (DMSO) and added to a test medium at final concentration of 0.1% DMSO. As a solvent control, 0.1% DMSO experimental section was provided. Minoxidil was dissolved in ethanol and added to a test medium at final concentration of 0.1% ethanol. […] Thus, a non-addition control section was used for a comparison control section of minoxidil.
Significance test was performed in the comparison experimental section. The test was carried out as Student T-test. It is determined that there is significance when P<0.05 (less than 5% if null hypothesis is true), as described in the figures.
A 100 mmol/L stock solution of adenosine (positive control substance) was prepared using DMSO as a solvent, and added to a test medium at final concentration of 100 μmol/L (0.1% DMSO experimental section was used as a solvent control). A 15 mmol/L stock solution of minoxidil was prepared with 50% ethanol, and added to a test medium at final concentration of 30 μmol/L. Since solvent (ethanol) concentration in this case is 0.2%, 0.2% ethanol experimental section was used as the control section.
Since the concentration of the solvent in the highest concentration of each test substance is 0.1% or less, it is determined that there is no influence of the solvent in the present test, and a non-addition control section was used as a reference in comparison of significant difference. The test was conducted as a Student T-test.
(§1) Thereafter, the cells were cultured for three days, and proliferation of each cell is compared using Living Cell Count Reagent SF. The experiment was carried out five times. After three-days culturing was completed, supernatant liquid of the culture was collected and a VEGF production amount of the supernatant was measured by ELISA kit as in Example 2.
Further, the supernatant was removed. The cells were washed with PBS, and a medium containing 10% Living Cell Count Reagent SF (300 μL/well) was then added. 100 μL per well of the culture supernatant 30 and 90 minutes after the addition was transferred to another 96-well plate and absorbance was measured with a microplate reader (measuring wavelength 450 nm, reference wavelength 595 nm).

The next data set relates to VEGF. The data set is described as follows: VEGF production promoting action in human hair follicle dermal papilla cells (ELISA of culture supernatant). The format is cell-based. The procedure:
An amount of VEGF in a culture supernatant treated with isosaponarin for three days on human hair follicle dermal papilla cells was measured using ELISA kit for (product name: Human VEGF Quantikine ELISA, Cat. No. DVE00, distributed by R&D Systems, Inc.) The supernatant at the time of three-day culturing in the above section (1-3) was used as the culture supernatant treated with isosaponarin for three days. Specifically, in the above section (1-3), in order to measure absorbance, the culture supernatant was removed three days after addition of isosaponarin. In an evaluation test of VEGF production promoting action, the culture supernatant was collected three days after the addition of isosaponarin, and the supernatant was used as a sample. The experiment was carried out five times.
Hereinafter, a method of measuring VEGF will be described in detail. For the measurement of VEGF, the stock solution was used without diluting the supernatant.
Procedure 1-1. On the basis of a VEGF standard stock solution (2000 pg/mL), VEGF standard solutions of 1000, 500, 250, 125, 62.5, 31.2, and 15.6 pg/mL were prepared using a reaction buffer.
Procedure 1-2. Each of the VEGF standard solutions and 200 μL of sample (culture supernatant) were added to a VEGF immobilized microplate in which 50 μL of dilution was added to each well, and allowed to react at room temperature for 2 hours (primary reaction).
Procedure 1-3. The solutions in the wells were removed and the wells were washed 3 times with washing solution.
Procedure 1-4. 200 μL of horseradish peroxidase-conjugated VEGF antibody solution was added to each well and allowed to react for 2 hours at room temperature (secondary reaction).
Procedure 1-5. The solutions in the wells were removed and the wells were washed 3 times with the washing solution.
Procedure 1-6. 200 μL of substrate solution was added to each well and allowed to react for 20 minutes at room temperature.
Procedure 1-7. 50 μL of reaction stop solution was added to each well. After one minute mixing in a plate mixer, absorbance of each well was measured with a plate reader (measuring wavelength 450 nm).
Procedure 1-8. From a standard curve, VEGF concentration in the sample was calculated.
A non-addition control section was used as a comparison control section of isosaponarin.
As a positive control, the same experiment was performed to the case of adding minoxidil having final concentration of 30 μmol/L as well. A non-addition control section was used as a comparison control section of minoxidil.
as §1
On the technique in general: ELISA stands for enzyme-linked immunosorbent assay.

The test system of data set [2] is human hair follicle dermal papilla cells. In words: Cytotoxicity test using human hair follicle dermal papilla cells. The note with it: three-day culture; for concentration showing toxicity to human hair follicle dermal papilla cells: FIGS. 5-7.
Description: (§2) Human hair follicle dermal papilla cells (Cat. No. CA60205a, Lot No. 2548, derived from person, distributed by Toyobo Co., Ltd.), which are widely used in efficacy evaluation of a hair restoration agent, were used as test cells. The human hair follicle dermal papilla cells were cultured in a carbon dioxide incubator (5% CO2, 37° C.) using a follicle dermal papilla cell proliferation medium (Cat. No. TMTPGM-250, distributed by Toyobo Co., Ltd.) A flask used for the culture was coated with collagen I before use. For cell passage, cells were separated from the flask using a follicle dermal papilla cell dedicated subculture set (Cat. No. CA090K, distributed by Toyobo Co., Ltd.)
(§3) The human hair follicle dermal papilla cells were seeded in a collagen I-coated 96-well plate at 5×10^3 cells/well (0.1 mL/well in this test). After one-day culturing (50% confluent) in the carbon dioxide incubator (5% CO2, 37° C.), the cells were transferred to a test medium containing isosaponarin, and then cultured for three days. Cell proliferation was compared using Living Cell Count Reagent SF (Cat. No. 07553, distributed by Nacalai Tesque, Inc.) In consideration of possible influence on absorbance by precipitates adhering to the cells in absorbance measurement in living cell count, the culture supernatant was removed after the end of the three-day culturing, and the cells were washed with a phosphate-buffered saline (PBS). After washing with PBS, 100pL per well of a medium containing 10% of Living Cell Count Reagent SF was added. Absorbance (measurement wavelength 450 nm, reference wavelength 595 nm) of the culture supernatant was measured 30 minutes and 90 minutes after the addition. An amount of change (ABS/hr) in absorbance ABS per hour was calculated from values at 90 minutes and 30 minutes. The experiment was carried out three times.
For data set [3] the test system is unchanged. The data set is described as follows: Evaluation of human hair follicle dermal papilla cell-activating action (Living Cell Count Reagent SF, ABS/hr). The format is cell-based. The note with it: Example 7, three days.
The test system is the same in data set [4].
Description: as §2, §3
Setting [5] is: Example 7, 0.1 μmol/L, three days.

On to `Nc1ncnc2c1ncn2[C@@H]1O[C@H](CO)[C@@H](O)[C@H]1O` [adenosine, reference compound], for which the “FGF-7 gene expression vs 0.1% DMSO experimental section” value in the data set with FGF-7 gene (100 μmol/L, FIG. 10) was “more significantly elevated FGF-7 gene expression”. Besides, the “cell-activating action vs 0.1% DMSO experimental section” value was “more significant cell-activating action” in data set [1] (Example 1, three-day processing period) and “more significant cell-activating action” in data set [1] (Example 7, three days, FIG. 8). Further, in the data set with VEGF (Example 7, 100 μmol/L, three days, FIG. 9), the “amount of VEGF vs 0.1% DMSO experimental section” value is reported as “significantly increased the amount of VEGF on human hair follicle dermal papilla cell slightly more”.

In the case of `O=c1cc(-c2ccc(O)cc2)oc2cc(O)cc(O)c12` [apigenin, 2-(4-hydroxyphenyl)-5-hydroxy-7-hydroxy-4H-1-benzopyran-4-one], the “amount of VEGF vs non-addition control section” value with VEGF (Example 7, 0.001 μmol/L to 0.01 μmol/L, three days, FIG. 9) is “increased more significantly”; with VEGF (setting [5]), “no significance”. Besides, in data set [2], the “concentration showing toxicity to human hair follicle dermal papilla cells” value (shortened to “concentration showing toxicity”) was not below 80 µM. In addition, the “cell-activating action vs non-addition control section” value in data set [3] (0.001 μmol/L to 1 μmol/L, FIG. 8) is on record as “more significant cell-activating action”; in data set [3] (10 μmol/L), “no significance”.

Turning to `COC(=O)/C=C/c1ccc(O)c(O)c1` [caffeic acid methyl ester], the “amount of VEGF vs non-addition control section” value is listed as “did not show any significance” with VEGF (setting [5]); “increased more significantly” in the data set with VEGF (Example 7, 1 μmol/L, three days, FIG. 9); “did not show any significance” with VEGF (Example 7, 10 μmol/L, three days). Also, the “concentration showing toxicity” value in data set [2] was not below 16 µM.

On to `O=c1cc(-c2ccc(O[C@@H]3O[C@H](CO)[C@@H](O)[C@H](O)[C@H]3O)cc2)oc2cc(O)c([C@@H]3O[C@H](CO)[C@@H](O)[C@H](O)[C@H]3O)c(O)c12` [isosaponarin, 4′-(β-D-glucopyranosyloxy)-5,7-dihydroxy-6-β-D-glucopyranosylflavone], for which the “cell-activating action vs non-addition control section” value in data set [1] (Example 1, 0.1 μmol/L to 1000 μmol/L, one-day processing period, FIG. 2) was “slightly more significant cell-activating action”; in data set [1] (Example 1, 0.1 μmol/L to 1000 μmol/L, three-day processing period, FIG. 3), “more significant cell-activating action”. Moreover, the “cell-activating action relative to the action in the case of treating with minoxidil” value in data set [1] (Example 1, three-day processing period, minoxidil 30 μmol/L) is listed as “about three times”. Besides, the “amount of VEGF vs non-addition control section” value in the data set with VEGF (Example 2, 1000 μmol/L, treated for three days, FIG. 4) is “significantly increased”. The “concentration showing no toxicity to human hair follicle dermal papilla cells” value in data set [2] (FIG. 1) is not above 1000 µM.

Turning to `Nc1cc(N2CCCCC2)nc(N)[n+]1[O-]` [minoxidil, 6-(1-piperidinyl)-2,4-pyrimidinediamine-3-oxide, reference compound], the “cell-activating action vs non-addition control section” value is listed as “slightly more significant cell-activating action” in data set [1] (Example 1, 30 μmol/L, one-day processing period) and “more significant cell-activating action” in data set [1] (Example 1, 30 μmol/L, three-day processing period). In addition, in the data set with VEGF (Example 2, 30 μmol/L, treated for three days, FIG. 4), the “amount of VEGF vs non-addition control section” value is given as “significantly increased”. Moreover, in the data set with VEGF (Example 7, 30 μmol/L, three days, FIG. 9), the “amount of VEGF vs 0.2% ethanol experimental section” value is listed as “more significantly increased”. Further, in data set [3] (30 μmol/L, FIG. 8), the “cell-activating action vs 0.2% ethanol experimental section” value is “more significant cell-activating action”.

For coumaric acid, the “FGF-7 gene expression vs non-addition control section” value with FGF-7 gene (0.001 μmol/L, FIG. 10) is “more significantly elevated”; in the data set on FGF-7 gene (0.01 μmol/L) it was “did not show any significance”. Further, the “cell-activating action vs non-addition control section” value in data set [3] (0.01 μmol/L) was “did not show significance”; in data set [3] (0.1 μmol/L, FIG. 8) it was “more significant cell-activating action”; in data set [3] (10 μmol/L), “did not show significance”. Further, the “concentration showing toxicity” value in data set [4] is not below 2000 µM.
